In ChEMBL document CHEMBL1201862, “PubChem BioAssay data set” (2004):
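Following 48 hours of exposure in 96-well plates, responses at five concentrations were used to interpolate endpoints linearly. GI50 = concentration required for 50% inhibition of growth.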 Calls of active or inactive are those of the source. No stated cut-off is given here; in the data, active = GI50 up to about 1.1 µM and inactive = higher.

Assays:
Experiment in all cases: NCI-60 cell line screen, 48 h
HCC 2998 = system: HCC 2998
COLO 205 = system: COLO 205
MOLT-4 = system: MOLT-4
NCI-H23 = system: NCI-H23
SF-539 = system: SF-539
CAKI-1 = system: CAKI-1
SN12C = system: SN12C
A498 = system: A498
T47D = system: T47D
RPMI-8226 = system: RPMI-8226
IGROV-1 = system: IGROV-1
SNB-19 = system: SNB-19
DU-145 = system: DU-145
UACC-62 = system: UACC-62
MDA-MB-435 = system: MDA-MB-435
EKVX = system: EKVX
UO-31 = system: UO-31
MDA-MB-231 = system: MDA-MB-231
OVCAR-8 = system: OVCAR-8
ACHN = system: ACHN

Measured: GI50

Oc1ccc2c(c1)-c1c(c3cc(O)ccc3n1CCN1CCOCC1)CC2
inactive: HCC 2998 16.9 µM | COLO 205 17.4 µM | MOLT-4 19.6 µM | NCI-H23 25.3 µM | SF-539 22.6 µM | CAKI-1 24.9 µM | SN12C 35.3 µM | A498 21 µM | T47D 18.8 µM | RPMI-8226 24.7 µM | IGROV-1 24.2 µM | SNB-19 29 µM | DU-145 28.4 µM | UACC-62 16.7 µM | MDA-MB-435 17.8 µM | EKVX 30.8 µM | UO-31 17.5 µM | MDA-MB-231 17.6 µM | OVCAR-8 30.4 µM | ACHN 30.5 µM

CCOC(=O)CN1C(=O)c2c(c(C)n(-c3ccccc3)c2C)C1=O
inactive: HCC 2998 > 100 µM | COLO 205 > 100 µM | MOLT-4 > 100 µM | NCI-H23 > 100 µM | SF-539 91.2 µM | CAKI-1 > 100 µM | SN12C > 100 µM | A498 > 100 µM | T47D > 100 µM | RPMI-8226 > 100 µM | IGROV-1 > 100 µM | SNB-19 > 100 µM | DU-145 > 100 µM | UACC-62 > 100 µM | MDA-MB-435 > 100 µM | EKVX > 100 µM | UO-31 > 100 µM | MDA-MB-231 > 100 µM | OVCAR-8 > 100 µM | ACHN > 100 µM

O=P1(NCCCl)OCCCN1CCCl (stereo not given) [IFOSFAMIDE]
inactive: HCC 2998 346 µM | COLO 205 394 µM | MOLT-4 262 µM | NCI-H23 417 µM | SF-539 355 µM | CAKI-1 287 µM | SN12C 388 µM | A498 428 µM | T47D > 500 µM | RPMI-8226 332 µM | IGROV-1 433 µM | SNB-19 361 µM | DU-145 > 500 µM | UACC-62 363 µM | MDA-MB-435 > 500 µM | EKVX 352 µM | UO-31 386 µM | MDA-MB-231 > 500 µM | OVCAR-8 388 µM | ACHN > 479 µM
